From US5087573A, “Monoclonal antibody against bone alkaline phosphatase” (University of Kansas, priority 1988, dated 1992)

Molecular target: T1, purified alkaline phosphatase from human osteosarcoma (bone isoenzyme) (Homo sapiens, UniProt P05186)
T1 construct: Human Osteosarcoma obtained from nude mice (nu/nu) was frozen at -70° C. until required; from tissue; host or cells: human osteosarcoma tumour tissue obtained from nude mice (nu/nu); enzyme purified by n-butanol extraction, acetone and ammonium sulfate precipitation, Bio Gel-HT, DEAE Sepharose and Sephacryl S-400
T1 sequence (P05186 18-502 limits assumed): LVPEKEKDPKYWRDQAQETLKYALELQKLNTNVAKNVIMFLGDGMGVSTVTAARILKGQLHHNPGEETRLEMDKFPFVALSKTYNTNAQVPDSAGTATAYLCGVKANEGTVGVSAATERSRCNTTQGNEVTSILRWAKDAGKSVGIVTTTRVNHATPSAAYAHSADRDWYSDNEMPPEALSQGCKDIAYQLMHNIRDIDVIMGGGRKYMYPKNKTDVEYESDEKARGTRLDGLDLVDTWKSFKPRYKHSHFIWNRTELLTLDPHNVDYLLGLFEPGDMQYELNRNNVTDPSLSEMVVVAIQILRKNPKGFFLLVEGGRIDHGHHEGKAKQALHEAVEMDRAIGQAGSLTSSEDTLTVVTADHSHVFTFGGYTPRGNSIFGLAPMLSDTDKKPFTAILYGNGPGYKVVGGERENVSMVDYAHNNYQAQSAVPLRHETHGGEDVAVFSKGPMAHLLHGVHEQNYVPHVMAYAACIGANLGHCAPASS
Assay: Inhibition of alkaline phosphatase by amino acids (release of p-nitrophenol from p-nitrophenylphosphate)
Type: biochemical
Conditions: amino acid at 5 mM in the reaction mixture; 4 mM p-nitrophenylphosphate, pH 10.2
Procedure: The enzyme was assayed by measuring the release of p-nitrophenol from p-nitro-phenylphosphate at ambient temperature using a Gilford (model 250) recording spectrophotometer. The assay mixture (0.5 ml) contained 0.3M 2-amino-2-methyl-1-propanol, pH 10.2, 4 mM p-nitrophenylphosphate, 20 ug MgCl2 and 10 ul of diluted enzyme (u=micro). The formation of p-nitrophenol was measured spectrophotometrically at 410 nm. Units represent u moles of p-nitrophenol formed per minute at 22° C.
In order to define more clearly the isoenzyme, inhibition studies using amino acids were applied to the enzyme samples. The assay was carried out in the presence of L-homoarginine or L-phenylalanine at 5 mM concentration in the reaction mixtures respectively.
Based on the sensitivity to heat inactivation and inhibitions by L-homoarginine and L-phenylalanine, the properties of alkaline phosphatase from human osteosarcoma are consistent with those of the bone isoenzyme. It is generally considered in the art that the ALP from normal bone and osteosarcoma are probably identical.

With N=C(N)NCCCC[C@H](N)C(=O)O [L-homoarginine] the inhibition at 5000 µM was 64%.

With N[C@@H](Cc1ccccc1)C(=O)O [L-phenylalanine] the inhibition at 5000 µM was 5%.
